Results published in ChEMBL document CHEMBL1157907, “Synthesis and anti-tumor activities of methyl 2-O-aryl-6-O-aryl'-D-glucopyranosides” (Bioorg Med Chem Lett, 2010).

Experiments:
HeLa [1] = test: Cytotoxicity against human HeLa cells after 48 hrs by MTT assay; assay type: functional, cell-based
A549 [2] = test: Cytotoxicity against human A549 cells after 48 hrs by MTT assay; assay type: functional, cell-based; conditions: A549, 48 h
MDA-MB-231 [3] = test: Cytotoxicity against human MDA-MB-231 cells after 48 hrs by MTT assay; assay type: functional, cell-based; conditions: MDA-MB-231, 48 h
A549 [4] = test: Cytotoxicity against human A549 cells up to 50 uM after 48 hrs by MTT assay; assay type: functional, cell-based
HeLa [5] = test: Cytotoxicity against human HeLa cells up to 50 uM after 48 hrs by MTT assay; assay type: functional, cell-based
MDA-MB-231 [6] = test: Cytotoxicity against human MDA-MB-231 cells up to 50 uM after 48 hrs by MTT assay; assay type: functional, cell-based
MDA-MB-231 [7] = test: Drug uptake in human MDA-MB-231 cells at 10 uM; assay type: ADME, cell-based; conditions: mda-mb-231, 10 µM
MDA-MB-231 [8] = test: Cytotoxicity against human MDA-MB-231 cells at 20 uM after 48 hrs by MTT assay; assay type: functional; conditions: MDA-MB-231, 48 h
MCF7 [9] = test: Cytotoxicity against human MCF7 cells at 20 uM after 48 hrs by MTT assay; assay type: functional; conditions: MCF7, 48 h
MDA-MB-435 [10] = test: Cytotoxicity against human MDA-MB-435 cells at 20 uM after 48 hrs by MTT assay; assay type: functional; conditions: MDA-MB-435, 48 h
MCF7 [11] = test: Cytotoxicity against human MCF7 cells after 48 hrs by MTT assay; assay type: functional, cell-based; conditions: MCF7, 48 h
MDA-MB-435 [12] = test: Cytotoxicity against human MDA-MB-435 cells after 48 hrs by MTT assay; assay type: functional, cell-based; conditions: MDA-MB-435, 48 h

SMILES	EC50 (HeLa [1])	EC50 (A549 [2])	EC50 (MDA-MB-231 [3])	inhibition at 20 µM (MDA-MB-231 [8])	inhibition at 20 µM (MCF7 [9])	inhibition at 20 µM (MDA-MB-435 [10])	further results
CO[C@H]1O[C@H](COc2ccc(C3CCCCC3)cc2)[C@@H](O)[C@H](O)[C@H]1Oc1cccc2c1CCCC2	25 µM	28 µM	37 µM	–	–	–	–
COc1ccc(OC[C@H]2O[C@H](OC)[C@H](Oc3ccc(OC4CCCCC4)cc3)[C@@H](O)[C@@H]2O)cc1OC	–	–	–	–	–	–	EC50 (A549 [4]): Not Active; EC50 (HeLa [5]): Not Active; EC50 (MDA-MB-231 [6]): Not Active
CO[C@H]1O[C@H](COc2ccc(C3CCCCC3)cc2)[C@@H](O)[C@H](O)[C@H]1Oc1ccc(OC2CCCCC2)cc1	10 µM	12 µM	14 µM	–	–	–	Drug uptake (MDA-MB-231 [7]): Not Active
CO[C@@H]1O[C@H](COc2ccccc2C(C)C)[C@@H](O)[C@H](O)[C@H]1Oc1ccc(OC2CCCCC2)cc1	42 µM	41 µM	44 µM	–	–	–	–
CO[C@H]1O[C@H](COc2ccccc2C(C)C)[C@@H](O)[C@H](O)[C@H]1Oc1ccc(OC2CCCCC2)cc1	47 µM	33 µM	36 µM	–	–	–	–
CO[C@@H]1O[C@H](COc2cccc(C(C)C)c2)[C@@H](O)[C@H](O)[C@H]1Oc1ccc(OC2CCCCC2)cc1	39 µM	41 µM	40 µM	–	–	–	–
CO[C@H]1O[C@H](COc2cccc(C(C)C)c2)[C@@H](O)[C@H](O)[C@H]1Oc1ccc(OC2CCCCC2)cc1	28 µM	30 µM	38 µM	–	–	–	–
CO[C@H]1O[C@H](COc2ccccc2)[C@@H](O)[C@H](O)[C@H]1Oc1ccc2c(c1)-c1ccccc1S2(=O)=O	–	–	–	2%	7%	4%	–
CO[C@@H]1O[C@H](COc2ccccc2)[C@@H](O)[C@H](O)[C@H]1Oc1ccc2c(c1)-c1ccccc1S2(=O)=O	–	–	–	-16%	7%	0%	–
CO[C@H]1O[C@H](COc2ccc(-c3ccccc3)cc2)[C@@H](O)[C@H](O)[C@H]1Oc1ccc2c(c1)-c1ccccc1S2(=O)=O	–	–	–	29%	15%	12%	–
CO[C@H]1O[C@H](COc2cccc3c2CCCC3)[C@@H](O)[C@H](O)[C@H]1Oc1ccc2c(c1)-c1ccccc1S2(=O)=O	–	–	–	-8%	4%	-5%	–
COc1ccc(OC[C@H]2O[C@@H](OC)[C@H](Oc3ccc(OC4CCCCC4)cc3)[C@@H](O)[C@@H]2O)cc1OC	–	–	–	–	–	–	EC50 (A549 [4]): Not Active; EC50 (HeLa [5]): Not Active; EC50 (MDA-MB-231 [6]): Not Active
CO[C@H]1O[C@H](COc2ccc3c(c2)CCCC3)[C@@H](O)[C@H](O)[C@H]1Oc1ccc2c(c1)-c1ccccc1S2(=O)=O	–	–	–	30%	2%	17%	–
CO[C@@H]1O[C@H](COc2ccc3c(c2)CCCC3)[C@@H](O)[C@H](O)[C@H]1Oc1ccc2c(c1)-c1ccccc1S2(=O)=O	–	–	–	14%	7%	-4%	–
CO[C@H]1O[C@H](COc2ccc(-c3ccccc3)cc2)[C@@H](O)[C@H](O)[C@H]1Oc1ccccc1C(C)C	29 µM	33 µM	34 µM	–	–	–	–
CO[C@H]1O[C@H](COc2ccc(-c3ccccc3)cc2)[C@@H](O)[C@H](O)[C@H]1Oc1ccccc1	33 µM	36 µM	–	–	–	–	EC50 (A549 [4]): Not Active
CO[C@@H]1O[C@H](COc2ccc(-c3ccccc3)cc2)[C@@H](O)[C@H](O)[C@H]1Oc1cccc(C(C)C)c1	32 µM	35 µM	35 µM	–	–	–	–
CO[C@H]1O[C@H](COc2ccc(-c3ccccc3)cc2)[C@@H](O)[C@H](O)[C@H]1Oc1cccc(C(C)C)c1	35 µM	32 µM	30 µM	–	–	–	–

SMILES	EC50 (HeLa [1])	EC50 (A549 [2])	EC50 (MDA-MB-231 [3])	inhibition at 20 µM (MDA-MB-231 [8])	inhibition at 20 µM (MCF7 [9])	inhibition at 20 µM (MDA-MB-435 [10])	further results
CO[C@H]1O[C@H](COc2ccc(-c3ccccc3)cc2)[C@@H](O)[C@H](O)[C@H]1Oc1ccc(C(C)C)cc1	19 µM	32 µM	31 µM	–	–	–	–
CO[C@@H]1O[C@H](COc2ccc(OC3CCCCC3)cc2)[C@@H](O)[C@H](O)[C@H]1Oc1ccc(C(C)C)cc1	26 µM	32 µM	35 µM	–	–	–	–
CO[C@H]1O[C@H](COc2ccc(OC3CCCCC3)cc2)[C@@H](O)[C@H](O)[C@H]1Oc1ccc(C(C)C)cc1	18 µM	27 µM	25 µM	–	–	–	–
COc1cc(OC)cc(OC[C@H]2O[C@H](OC)[C@H](Oc3ccc(OC4CCCCC4)cc3)[C@@H](O)[C@@H]2O)c1	–	–	–	–	–	–	EC50 (A549 [4]): Not Active; EC50 (HeLa [5]): Not Active; EC50 (MDA-MB-231 [6]): Not Active
CO[C@H]1O[C@H](COc2ccc(C3CCCCC3)cc2)[C@@H](OC)[C@H](OC)[C@H]1Oc1ccc(OC2CCCCC2)cc1	–	–	–	–	–	–	EC50 (A549 [4]): Not Active; EC50 (HeLa [5]): Not Active; EC50 (MDA-MB-231 [6]): Not Active
CO[C@@H]1O[C@H](COc2ccc(OC3CCCCC3)cc2)[C@@H](O)[C@H](O)[C@H]1Oc1ccc(OC2CCCCC2)cc1	14 µM	25 µM	26 µM	–	–	–	–
CO[C@H]1O[C@H](COc2ccc(OC3CCCCC3)cc2)[C@@H](O)[C@H](O)[C@H]1Oc1ccc(OC2CCCCC2)cc1	14 µM	18 µM	20 µM	–	–	–	–
CO[C@@H]1O[C@H](COc2ccc3c(c2)CCCC3)[C@@H](O)[C@H](O)[C@H]1Oc1cccc(C(C)C)c1	–	–	–	–	–	–	EC50 (A549 [4]): Not Active; EC50 (HeLa [5]): Not Active; EC50 (MDA-MB-231 [6]): Not Active
CO[C@H]1O[C@H](COc2ccc3c(c2)CCCC3)[C@@H](O)[C@H](O)[C@H]1Oc1cccc(C(C)C)c1	33 µM	40 µM	–	–	–	–	EC50 (A549 [4]): Not Active
CO[C@H]1O[C@H](COc2ccc(C3CCCCC3)cc2)[C@@H](O)[C@H](O)[C@H]1Oc1ccc2c(c1)CCCC2	29 µM	17 µM	25 µM	–	–	–	–
CO[C@@H]1O[C@H](COc2ccc3c(c2)CCCC3)[C@@H](O)[C@H](O)[C@H]1Oc1ccc(OC2CCCCC2)cc1	–	–	–	0%	14%	1%	–
CO[C@@H]1O[C@H](COc2ccc(-c3ccccc3)cc2)[C@@H](O)[C@H](O)[C@H]1Oc1ccc(OC2CCCCC2)cc1	–	–	36 µM	64%	51%	30%	EC50 (MCF7 [11]): 18 µM; EC50 (MDA-MB-435 [12]): 26 µM
CO[C@H]1O[C@H](COc2cccc3c2CCCC3)[C@@H](O)[C@H](O)[C@H]1Oc1ccc(OC2CCCCC2)cc1	–	–	–	-8%	3%	-1%	–
CO[C@H]1O[C@H](COc2ccccc2)[C@@H](O)[C@H](O)[C@H]1Oc1ccc(OC2CCCCC2)cc1	–	–	–	-11%	-9%	-8%	–
CO[C@H]1O[C@H](COc2ccc3c(c2)CCCC3)[C@@H](O)[C@H](O)[C@H]1Oc1ccc(OC2CCCCC2)cc1	–	–	20 µM	24%	45%	16%	EC50 (MCF7 [11]): 17 µM; EC50 (MDA-MB-435 [12]): 26 µM
CO[C@@H]1O[C@H](COc2ccccc2)[C@@H](O)[C@H](O)[C@H]1Oc1ccc(OC2CCCCC2)cc1	–	–	–	-9%	-5%	14%	–
C=CCO[C@@H]1[C@@H](Oc2ccc(OC3CCCCC3)cc2)[C@@H](OC)O[C@H](COc2ccc(C3CCCCC3)cc2)[C@H]1OCC=C	–	–	–	–	–	–	EC50 (A549 [4]): Not Active; EC50 (HeLa [5]): Not Active; EC50 (MDA-MB-231 [6]): Not Active
CO[C@H]1O[C@H](COc2ccc(C3CCCCC3)cc2)[C@@H](OCc2ccccc2)[C@H](OCc2ccccc2)[C@H]1Oc1ccc(OC2CCCCC2)cc1	–	–	–	–	–	–	EC50 (A549 [4]): Not Active; EC50 (HeLa [5]): Not Active; EC50 (MDA-MB-231 [6]): Not Active
